Assay [1] concerns the target T1, Gag-Pol polyprotein [588-1027]/[588-1147] (Human immunodeficiency virus 1, UniProt P04585).
T1 construct: 588-1027; 588-1147
Description: HIV-1 RT Assay. Particulars: pH 8.3; 28 °C. The text has this:
(§1) The IC50 of reverse transcriptase is the concentration that inhibits 50% of recombinant HIV-1 RT RNA-directed DNA polymerase activity in vitro.

For assay [2], the target named is T2, Gag-Pol polyprotein [588-1027,P823L]/[588-1147,P823L] (Human immunodeficiency virus 1, UniProt P04585, P823L).
T2 construct: 588-1027; 588-1147
Put plainly: HIV-1 RT Assay. Conditions: pH 8.3; 28 °C.
From the text: as §1

This passage reports IC50 results from BindingDB's records for doi:10.1021/jm990383f (Upjohn, 2000).

As a reminder, the IC50 is the concentration at which inhibition is half-maximal. Low readings indicate inhibition by little substance, high ones a need for much substance. Take `CCc1c(CCO)nn(-c2ccccc2)c1-c1ccccc1` [1,5-Diphenyl-3-(2-hydroxyethyl)-4-ethylpyrazole]: the half-maximal inhibitory concentration (IC50) in assay [1] is > 50 µM.
Take `C#CCc1c(C)nn(-c2ccccc2)c1-c1ccccc1` [3-methyl-1,5-diphenyl-4-(prop-2-yn-1-yl)-1H-pyrazole]: the results for the IC50 in assay [1] and in assay [2] were 13.4 µM and 1.54 µM, respectively.
